From ChEMBL document CHEMBL1909046, “DrugMatrix in vitro pharmacology data”
pIC50, pKi: −log10 of the molar value.

Experiments:
[1] = target: T1, Neuropeptide Y receptor type 2 (Homo sapiens, UniProt P49146); type: cell membranes, Membrane; details: kan-ts; note: in other assays of this panel Not Active means under 50% inhibition at 10 µM
T1 sequence (P49146 whole entry): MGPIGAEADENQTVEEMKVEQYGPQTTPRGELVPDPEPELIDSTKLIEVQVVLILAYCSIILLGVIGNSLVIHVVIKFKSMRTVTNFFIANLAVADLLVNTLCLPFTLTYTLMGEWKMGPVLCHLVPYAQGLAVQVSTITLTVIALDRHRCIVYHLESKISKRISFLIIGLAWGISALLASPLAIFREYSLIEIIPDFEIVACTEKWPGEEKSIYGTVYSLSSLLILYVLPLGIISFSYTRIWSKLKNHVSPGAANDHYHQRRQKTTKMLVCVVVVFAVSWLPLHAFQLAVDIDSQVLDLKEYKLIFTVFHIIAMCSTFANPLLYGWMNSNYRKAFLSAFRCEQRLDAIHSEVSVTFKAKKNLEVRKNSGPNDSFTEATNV

[2] = target: T2, Leukotriene C4 synthase (Cavia porcellus, UniProt A6XA80); assay: biochemical; type: tissue-based, Lung;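 note: enzyme inhibition assay of leukotriene C4 synthase, using LTA4 as the substrate; in other assays of this panel Not Active means under 50% inhibition at 10 µM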
T2 sequence (A6XA80 whole entry): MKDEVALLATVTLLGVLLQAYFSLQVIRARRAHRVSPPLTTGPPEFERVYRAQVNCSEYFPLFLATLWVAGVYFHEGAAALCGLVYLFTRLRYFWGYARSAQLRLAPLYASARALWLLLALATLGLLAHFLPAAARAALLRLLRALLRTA

[3] = DRUGMATRIX: Leukotriene, BLT (LTB4) radioligand binding (ligand: [3H]LTB4); type: cell membranes, Membrane; details: u-937; Not Active = under 50% inhibition at 10 µM
[4] = target: Delta-type opioid receptor (Homo sapiens, UniProt P41143); type: cell membranes, HEK293, Membrane; note: in other assays of this panel Not Active means under 50% inhibition at 10 µM
[5] = target: 5-hydroxytryptamine receptor 1B (Rattus norvegicus, UniProt P28564); type: cell membranes, Wistar, Cerebral cortex, Membrane; details: for pIC50: read-out: IC50; for pKi: read-out: Ki; for all read-outs here: in other assays of this panel Not Active means under 50% inhibition at 10 µM
[6] = target: Acetylcholinesterase (Homo sapiens, UniProt P22303); assay: DRUGMATRIX: Acetylcholinesterase enzyme inhibition (substrate: acetylthiocholine); type: cell-based, HEK293; details: Not Active = under 50% inhibition at 10 µM
Sequence of Acetylcholinesterase (P22303 whole entry): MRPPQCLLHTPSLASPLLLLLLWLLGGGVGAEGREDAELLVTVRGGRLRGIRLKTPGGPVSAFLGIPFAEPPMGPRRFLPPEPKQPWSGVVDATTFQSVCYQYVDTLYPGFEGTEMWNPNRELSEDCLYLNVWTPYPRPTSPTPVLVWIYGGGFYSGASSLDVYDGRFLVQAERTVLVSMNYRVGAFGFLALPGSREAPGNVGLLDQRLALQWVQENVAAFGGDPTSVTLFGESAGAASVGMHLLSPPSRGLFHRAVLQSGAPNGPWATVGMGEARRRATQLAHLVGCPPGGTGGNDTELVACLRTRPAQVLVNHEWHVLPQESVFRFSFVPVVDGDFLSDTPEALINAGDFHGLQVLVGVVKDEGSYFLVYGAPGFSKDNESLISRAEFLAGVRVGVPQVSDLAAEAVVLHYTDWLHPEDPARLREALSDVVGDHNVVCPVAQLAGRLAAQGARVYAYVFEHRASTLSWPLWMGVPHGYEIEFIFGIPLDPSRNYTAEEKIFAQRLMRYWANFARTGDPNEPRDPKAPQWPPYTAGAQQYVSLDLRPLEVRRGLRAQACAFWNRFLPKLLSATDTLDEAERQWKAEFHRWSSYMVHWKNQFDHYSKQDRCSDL

Sequence of Delta-type opioid receptor (P41143 whole entry): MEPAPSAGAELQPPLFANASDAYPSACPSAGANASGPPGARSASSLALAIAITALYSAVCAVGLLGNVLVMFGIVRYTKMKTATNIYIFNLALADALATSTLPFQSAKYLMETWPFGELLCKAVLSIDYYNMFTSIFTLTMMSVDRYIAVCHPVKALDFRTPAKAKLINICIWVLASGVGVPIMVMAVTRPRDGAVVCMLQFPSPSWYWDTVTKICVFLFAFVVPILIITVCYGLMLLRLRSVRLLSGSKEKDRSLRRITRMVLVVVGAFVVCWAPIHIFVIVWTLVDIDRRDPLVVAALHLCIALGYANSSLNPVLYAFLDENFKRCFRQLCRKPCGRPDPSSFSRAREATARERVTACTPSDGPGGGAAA
Sequence of 5-hydroxytryptamine receptor 1B (P28564 whole entry): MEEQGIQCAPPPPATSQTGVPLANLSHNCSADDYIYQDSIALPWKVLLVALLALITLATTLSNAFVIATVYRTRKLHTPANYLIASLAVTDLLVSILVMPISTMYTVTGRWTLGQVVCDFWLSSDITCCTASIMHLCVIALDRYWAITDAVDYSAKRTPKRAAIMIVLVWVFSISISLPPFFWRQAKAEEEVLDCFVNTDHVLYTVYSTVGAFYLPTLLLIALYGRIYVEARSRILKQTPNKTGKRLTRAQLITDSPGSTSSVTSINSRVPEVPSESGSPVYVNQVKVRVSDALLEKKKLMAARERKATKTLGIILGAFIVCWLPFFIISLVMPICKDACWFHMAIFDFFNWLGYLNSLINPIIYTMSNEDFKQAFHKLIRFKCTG

Compound	IC50 [1]	Ki [1]	IC50 [2]	Ki [2]	IC50 [3]	Ki [3]	IC50 ([4]; hek293)	Ki ([4]; hek293)	IC50 [5]	Ki [5]	IC50 ([6]; hek293)	Ki ([6]; hek293)	pIC50 [5]	pKi [5]	pIC50 ([4]; read-out: IC50)	pKi ([4]; read-out: Ki)	pIC50 ([6]; read-out: IC50)
COPPER(II) OXIDE	Not Active	Not Active	Not Active	Not Active	Not Active	Not Active	Not Active	Not Active	Not Active	Not Active	Not Active	Not Active					
Cl.NC[C@H]1CC[C@H](C(=O)Oc2ccc(CCC(=O)O)cc2)CC1 [CETRAXATE HYDROCHLORIDE]	Not Active		Not Active		Not Active	Not Active	Not Active		Not Active		Not Active						
COc1ccccc1OCCNCC(O)COc1cccc2[nH]c3ccccc3c12 (stereo not drawn) [CARVEDILOL]	Not Active		Not Active		Not Active	Not Active	Not Active				Not Active		5.89	6.23			
C[C@H](C(=O)O)c1ccc2oc(-c3ccc(F)cc3)nc2c1 [FLUNOXAPROFEN]	Not Active		Not Active		Not Active	Not Active	Not Active		Not Active		Not Active						
CCN1CCN(c2cc3c(cc2F)c(=O)c(C(=O)O)cn3C2CC2)CC1 [ENROFLOXACIN]	Not Active		Not Active		Not Active	Not Active	Not Active		Not Active		Not Active						
C[C@]12CC[C@@H](O)C[C@@H]1CC[C@@H]1[C@@H]2CC[C@]2(C)C(=O)CC[C@@H]12 [ANDROSTERONE]	Not Active		Not Active		Not Active	Not Active	Not Active		Not Active		Not Active						
O=C(NCCN1CCOCC1)c1ccc(Cl)cc1 [MOCLOBEMIDE]	Not Active		Not Active		Not Active	Not Active	Not Active		Not Active		Not Active						
NC(=O)CN1CCCC1=O	Not Active		Not Active		Not Active	Not Active	Not Active		Not Active		Not Active						
Oc1ccccc1 [PHENOL]	Not Active		Not Active		Not Active	Not Active	Not Active		Not Active		Not Active						
CCO [ALCOHOL]	Not Active		Not Active		Not Active	Not Active	Not Active		Not Active		Not Active						
COc1ccc(Cl)cc1C(=O)NCCc1ccc(S(=O)(=O)NC(=O)NC2CCCCC2)cc1 [GLYBURIDE]	Not Active		Not Active		Not Active	Not Active	Not Active		Not Active		Not Active						
OC[C@H]1O[C@@H]2O[C@H]3[C@H](O)[C@@H](O)[C@@H](O[C@H]4[C@H](O)[C@@H](O)[C@@H](O[C@H]5[C@H](O)[C@@H](O)[C@@H](O[C@H]6[C@H](O)[C@@H](O)[C@@H](O[C@H]7[C@H](O)[C@@H](O)[C@@H](O[C@H]8[C@H](O)[C@@H](O)[C@@H](O[C@H]1[C@H](O)[C@H]2O)O[C@@H]8CO)O[C@@H]7CO)O[C@@H]6CO)O[C@@H]5CO)O[C@@H]4CO)O[C@@H]3CO [BETADEX]	Not Active		Not Active		Not Active	Not Active	Not Active		Not Active		Not Active						
NC(N)=Nc1nc(CSCCC(N)=NS(N)(=O)=O)cs1 [FAMOTIDINE]	Not Active		Not Active		Not Active	Not Active	Not Active		Not Active		Not Active						
COc1cc(NC(C)CCCN)c2ncccc2c1 (stereo not drawn) [PRIMAQUINE]	Not Active		Not Active		Not Active	Not Active	Not Active		Not Active		Not Active						
Cc1c(N)nc([C@H](CC(N)=O)NC[C@H](N)C(N)=O)nc1C(=O)N[C@H](C(=O)N[C@H](C)[C@@H](O)[C@H](C)C(=O)N[C@H](C(=O)NCCc1nc(-c2nc(C(=O)NCCC[S+](C)C)cs2)cs1)[C@@H](C)O)[C@@H](O[C@@H]1O[C@@H](CO)[C@@H](O)[C@H](O)[C@@H]1O[C@H]1O[C@H](CO)[C@@H](O)[C@H](OC(N)=O)[C@@H]1O)c1c[nH]cn1.[Br-] [BLEOMYCIN A2]	Not Active		Not Active		Not Active	Not Active	Not Active		Not Active		Not Active						
O=C(O)CNCP(=O)(O)O [GLYPHOSATE]	Not Active		Not Active		Not Active	Not Active	Not Active		Not Active		Not Active						
c1ccc2c(c1)Nc1ccccc1S2 [PHENOTHIAZINE]	Not Active		Not Active		Not Active	Not Active	Not Active		Not Active		Not Active						
OC[C@H]1OC2C3[C@@H](CO)OC(O[C@H]4[C@H](O)[C@@H](O)[C@@H](O[C@H]5[C@H](O)[C@@H](O)[C@@H](O[C@H]6[C@H](O)[C@@H](O)[C@@H](O[C@H]7[C@H](O)[C@@H](O)[C@@H](O[C@H]8[C@H](O)[C@@H](O)[C@@H](O[C@H]9[C@H](O)[C@@H](O)C(OC1[C@H](O)[C@H]2O)O[C@@H]9CO)O[C@@H]8CO)O[C@@H]7CO)O[C@@H]6CO)O[C@@H]5CO)O[C@@H]4CO)[C@H](O)[C@H]3O	Not Active		Not Active		Not Active	Not Active	Not Active		Not Active		Not Active						
CC(C)Cc1ccc([C@H](C)C(=O)O)cc1 [DEXIBUPROFEN]	Not Active		Not Active		Not Active	Not Active	Not Active		Not Active		Not Active						
CC(N)Cc1c[nH]c2ccc(OCc3cccs3)cc12 (stereo not drawn) [BW-723C86]	Not Active		Not Active		Not Active	Not Active	Not Active				Not Active		6.38	6.40			
CC(=O)[C@]1(O)Cc2c(O)c3c(c(O)c2[C@@H](O[C@H]2C[C@H](N)[C@H](O)[C@H](C)O2)C1)C(=O)c1ccccc1C3=O [IDARUBICIN]	Not Active		Not Active		Not Active	Not Active	Not Active		Not Active		Not Active						
NC(=O)NC(=O)Cc1ccccc1 [PHENACEMIDE]	Not Active		Not Active		Not Active	Not Active	Not Active		Not Active		Not Active						
Nc1ccc(C(=O)O)c(O)c1 [AMINOSALICYLIC ACID]	Not Active		Not Active		Not Active	Not Active	Not Active		Not Active		Not Active						
Nc1nc(N)c2nc(CNc3ccc(C(=O)N[C@@H](CCC(=O)O)C(=O)O)cc3)cnc2n1 [AMINOPTERIN]	Not Active		Not Active		Not Active	Not Active	Not Active		Not Active		Not Active						
c1ccc(Cn2ccnc2)cc1	Not Active		Not Active		Not Active	Not Active	Not Active		Not Active		Not Active						
CC(C)(C#N)c1cc(Cn2cncn2)cc(C(C)(C)C#N)c1 [ANASTROZOLE]	Not Active		Not Active		Not Active	Not Active	Not Active		Not Active		Not Active						
COc1cc(/C=C/C(=O)O)ccc1O [FERULATE]	Not Active		Not Active		Not Active	Not Active	Not Active		Not Active		Not Active						
COc1cc([C@@H]2c3cc4c(cc3[C@H](O)[C@H]3COC(=O)[C@H]23)OCO4)cc(OC)c1OC [PODOFILOX]	Not Active		Not Active		Not Active	Not Active	Not Active		Not Active		Not Active						
C[N+](C)(C)CCOC(N)=O.[Cl-] [CARBACHOL]	Not Active		Not Active		Not Active	Not Active	Not Active		Not Active		Not Active						
CC1(COc2ccc(CC3SC(=O)NC3=O)cc2)CCCCC1 (stereo not drawn) [CIGLITAZONE]	Not Active		Not Active		Not Active	Not Active			Not Active						4.57	5.02	4.82
